# Test results as given in patent publication US10100011B2, “Pentadienoyl piperidine derivative and use thereof” (Industry-Academic Cooperation Foundation, Yonsei University, priority 2014, dated 2018).
# Experiments:
# [1] = system: C57BL/6J mice; test: Plasma lipid concentrations in mice fed high-fat diet; type: in vivo, mouse; settings: about 0.05% compound in high-fat diet, 10 weeks
# Description: (§1) An obesity induction diet used in this experiment was a high-fat diet (HFD: 40% fat calories, 17 g of lard+3% corn oil/100 g diet), and the compositions of diets including the LJ-2501, LJ-2488, LJ-2495, LJ-2496 compounds were identical to that of HFD, except that each of the compounds was included in an amount of about 0.05% (Table 2). As a control drug, an anti-obesity drug, sibutramine (Sibut), was added in an amount of about 0.01% to the high-fat diet and a normal diet group (Chow) was fed with commercial rodent chow.
# (§2) 5-week old 40 male C57BL/6J mice (Orient Bio., Korea) were fed with hard feed and accommodated in a laboratory environment for one week. Subsequently, in accordance with a randomized block method, the mice were randomly grouped into a normal diet group, a high-fat diet control group, two experimental substance groups, and […] and raised for a total of 10 weeks (n=8/group). Diets were supplied with water between 10 am and 11 am every day. An intake amount was measured every day and the body weights of the mice were measured every week. To prevent temporal weight change due to feed intake, feedboxes were removed and, after two hours, the body weights were measured. The experimental animals were fasted for 12 hours or more and then anesthetized with diethyl ether, followed by collecting blood, liver, and visceral adipose tissues (epididymal fat, perirenal fat, mesenteric fat, and retroperitoneal fat). The collected samples were washed with 0.1 M phosphate buffered saline (pH 7.4) and then weighed. Blood samples collected from abdominal aortas were centrifuged at 1000×g for 15 minutes, thereby separating plasma.
# Using the aforementioned experimental animals raised for 10 weeks, the concentrations of a total of cholesterol, neutral fat, and glucose in plasma and lipid components in liver tissue were measured as follows. The concentrations of a total of cholesterol, neutral fat, and free fatty acid in plasma were respectively measured twice using a commercial measurement kit (Bio Clinical System).
# [2] = system: C57BL/6J mice; test: Inflammatory cytokine concentrations in blood of mice fed high-fat diet (ELISA); type: in vivo, mouse; settings: about 0.05% compound in high-fat diet, 10 weeks
# Description: as §1, §2
# The concentrations of TNFα, MCP-1, IL-6, leptin, and insulin in plasma were measured according to an ELISA method using the Mouse Adipokine Magnetic Bead Panel kit (MADKMAG-71K, EMD Millipore Corporation, Mass., USA).
compound,measurement,setting,value
"CSc1ccc(/C=C/C=C/C(=O)N2CCCCC2)cc1 [LJ-2501, (2E,4E)-5-(4-(methylthio)phenyl)-1-(piperine-1-yl)penta-2,4-diene-1-one]","plasma LDL+VLDL cholesterol concentration, reduction compared to HFD",[1],27%
same,"plasma free fatty acid concentration, reduction compared to HFD",[1],69%
same,"plasma neutral fat concentration, reduction compared to HFD",[1],34%
same,"plasma total cholesterol concentration, reduction compared to HFD",[1],35%
same,"blood IL-6 concentration, reduction compared to HFD",[2],38%
same,"blood MCP-1 concentration, reduction compared to HFD",[2],22%
same,"blood TNF-α concentration, reduction compared to HFD",[2],25%
same,"blood leptin concentration, reduction compared to HFD",[2],25%
